Where a name gives a salt, the structure may show the parent alone.
Tests used:
Sigma-1 receptor = Sigma-1 receptor (Cavia porcellus (Guinea pig), UniProt Q60492); test: Sigma-1 receptor binding affinity test ([3H]-(+)-pentazocine displacement, guinea pig cerebral cortex membranes); settings: [3H]-(+)-pentazocine 10 nM, 25° C., 180 minutes; read-out: Sigma1R Ki
Protocol: Guinea pigs (provided by Beijing Vital River Laboratory Animal Technology Co., Ltd.) were decapitated, and the operations were carried out on ice. The cerebral cortex was quickly harvested and pooled into a centrifuge tube. A suitable amount of buffer (0.05M Tris-HCl with 0.32M sucrose) was added to the tube, and the tissue was homogenized using a homogenizer (IKA, Ultra Turrax T25 Digital) at setting 4 for 3˜4 seconds, repeated four times. After homogenization, solution B was added to adjust the volume to 10 mL/g. The weight of the centrifuge tubes was balanced, and then they were centrifuged at 1000 g for 10 minutes using a high-speed refrigerated centrifuge. The supernatant was collected and adjusted to 2 mL/g with solution B, followed by centrifugation at 1000 g and 4° C. for 10 minutes. The supernatant was then centrifuged at 18000 rpm and 4° C. for 25 minutes. The pellet was resuspended in solution B to a final volume of 3 mL/g and incubated in a water bath at 25° C. for 15 minutes. After incubation, the suspension was centrifuged at 18000 rpm and 4° C. for 45 minutes. The pellet was stored at −80° C. for future use.
An appropriate amount of homogenization buffer was added to the prepared membrane, and was dispersed into a suspension using a homogenizer, protein concentration was measured to be 4 mg/ml. 100 micrograms of protein were added to each well of a 96-well plate, with a volume of 90 μl. […] [3H]-(+)-pentazocine (Perkin-Elmer, Cat #NET1056250UC) was added to each well (final concentration of 10 nM). The 96-well plate was incubated in a constant temperature water bath (25° C., 180 minutes). […] After washing, the samples were dried in a 37° C. oven.

[1] = test system: motor balance ability of rats; test: Rat rotarod test (motor balance ability); type: in vivo; settings: 15 rpm
Protocol: Placing rats on a continuously rotating rod causes them to move immediately in the opposite direction of the rod's motion. […] During the formal experiment, the time the rats stay on the rotarod is used as an indicator to measure their motor balance ability. This experiment aims to explore the impact of compound 37 at doses ranging from 10 to 300 mg/kg on the motor balance ability of rats in the rotarod test.
After administration of the test substance to the rats, they are placed on the rotarod fatigue tester, and the average time spent on the rod after three tests is recorded and analyzed.
Calculate the Maximum Possible Effect on Motor Balance Ability %: Maximum Possible Effect on Motor Balance Ability %=(1−test group/vehicle)×100%
Note: The motor balance ability of the vehicle group is considered as 0%, and the Maximum Possible Effect on Motor Balance Ability % for each group is calculated based on this standard.

[2] = test system: Spinal Nerve Ligation (SNL) model; test: Spinal Nerve Ligation (SNL) model, mechanical pain threshold by Von Frey filaments; type: in vivo; settings: rat, oral administration (i.g.), 100 mg/kg, mechanical pain threshold ipsilateral hind paw
From the text: It is a type of chronic pain characterized by features such as spontaneous pain, hyperalgesia, abnormal pain, and sensory disturbances. Following nerve damage, neuropathic pain can persist, and its characteristics include hypersensitive responses to stimuli […], the presence of abnormal sensations (allodynia), and painful responses to non-harmful stimuli […]. The Spinal Nerve Ligation (SNL) model involves the tight ligation of the L5 and L6 spinal nerves using sutures.
In this experiment, pregabalin at a dose of 100 mg/kg was used as a positive control to compare the analgesic effect of the test compound. After administration, the mechanical pain threshold in the ipsilateral hind paw of the rat was tested using Von Frey filaments. The change in mechanical pain threshold before and after administration was used to determine whether the test compound at 100 mg/kg has a neuropathic pain-relieving effect in the SNL model.

Chain of Sigma-1 receptor (Q60492 whole entry): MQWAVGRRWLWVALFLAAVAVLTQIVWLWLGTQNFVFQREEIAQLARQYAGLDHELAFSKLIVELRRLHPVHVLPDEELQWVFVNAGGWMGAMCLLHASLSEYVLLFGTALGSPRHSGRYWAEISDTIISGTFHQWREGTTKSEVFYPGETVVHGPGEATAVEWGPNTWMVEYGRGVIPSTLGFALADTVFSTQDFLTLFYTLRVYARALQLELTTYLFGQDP

SMILES | Ki (Sigma-1 receptor) [nM] | also measured
Fc1ccc(-c2cc(CN3CCOCC3)on2)cc1F [Compound 19] | 172 | –
Fc1ccc(-c2cc(CN3CC[Se]CC3)on2)cc1F [Compound 20] | 48.9 | –
OC1CCN(Cc2cc(-c3ccc(F)c(F)c3)no2)CC1 [Compound 37] | – | change in the time spent on the rotarod compared to the vehicle ([1]; oral 15 minutes prior, 10-300 mg/kg): no significant change; Maximum Possible Effect on Motor Balance Ability ([1]; oral 15 minutes prior, first of four doses in 10-300 mg/kg): −6%; Maximum Possible Effect on Motor Balance Ability ([1]; oral 15 minutes prior, fourth of four doses in 10-300 mg/kg): −6%; Maximum Possible Effect on Motor Balance Ability ([1]; oral 15 minutes prior, second of four doses in 10-300 mg/kg): 11%; Maximum Possible Effect on Motor Balance Ability ([1]; oral 15 minutes prior, third of four doses in 10-300 mg/kg): −6%
O[C@H]1CCN(Cc2cc(-c3ccc(F)c(F)c3)no2)C1 [Compound 38] | 378 | –
OC[C@H]1CCCN1Cc1cc(-c2ccc(F)c(F)c2)no1 [Compound 40] | 190 | –
OC[C@@H]1CCCN1Cc1cc(-c2ccc(F)c(F)c2)no1 [Compound 41] | 34 | –
O[C@@H]1CCN(Cc2cc(-c3ccc(Cl)c(Cl)c3)no2)C1 [Compound 43] | 7.97 | –
OC[C@H]1CCCN1Cc1cc(-c2ccc(Cl)c(Cl)c2)no1 [Compound 44] | 19 | –
OCCC1CCN(Cc2cc(-c3ccc(Cl)c(Cl)c3)no2)CC1 [Compound 47] | 0.74 | –
CC1COCC(C)N1CCOCc1cc(-c2ccc(Cl)c(Cl)c2)no1 (centres unmarked) [Compound 77] | 14.9 | –
O=C1CCN(Cc2cc(-c3ccc(F)c(F)c3)no2)CC1 [Compound 88] | 959 | –
CC(C)C[C@H](CN)CC(=O)O [Pregabalin, pregabalin] | – | analgesic activity in the SNL model [2]: some analgesic activity
Cc1cccc([C@H](C)c2cnc[nH]2)c1C [dexmedetomidine hydrochloride injection, dexmedetomidine hydrochloride, reference compound] | – | Maximum Possible Effect on Motor Balance Ability ([1]; subcutaneous injection 30 μg/kg, 15 minutes prior, vs vehicle): 62%

Source: patent US20240317745A1, “SIGMA-1 RECEPTOR ANTAGONISTS AND THEIR APPLICATIONS” (Humanwell Pharmaceutical US, Inc., priority 2023, published 2024)
